Key:
[1] = Long-term oral administration in drinking water, tolerability; format: in vivo, C57BL/6 mice
Description: (§1) Animal experimentation. Male C57BL/6 mice (Shanghai SLAC Laboratory animal Co. Ltd) were group-housed in a barrier facility with 12-hr light/12-hr dark cycles. All mice received a regular chow diet ad libitum (PicoLab 5053 Rodent Diet 20; Lab Diets) except for HFD (40-60%) and CR models. The compound was then administered in drinking water ad libitum at either 90-100 or 100-120 mg/kg/day, based on the previously measured water consumption.
The C57BL/6 mice were maintained on a standard purified mouse diet (PicoLab 5053 Rodent Diet 20; Lab Diets) until they reached 2 months of age when the treatments started. […] Body weights were measured weekly at the same time each week. Food and water intake were measured once every month for 3-6 consecutive days at the same time each month. Water consumption was measured for 2 weeks prior to the start of administration. Compound was generated and modified for better permeability in to mitochondria, evaluated by HPLC, was 96%-97%. […] Aliquots were collected from each batch and measured by HPLC to confirm stability of the compound. […] Rectal body temperature was measured monthly, as described previously. Whole blood samples, and histopathology were analyzed after 14 months of treatment. […]

[2] = Body weight variations on chow diet; format: in vivo, C57BL/6 mice; settings: for body weight lighter than controls: male mice
Description: as §1, with “Male C57BL/6 mice (Shanghai SLAC Laboratory animal Co.” left out
(§2) The C57BL/6 mice were maintained on a standard purified mouse diet (PicoLab 5053 Rodent Diet 20; Lab Diets) until they reached 2 months of age when the treatments started. The CR animals were subjected to a lifelong restriction on PicoLab 5053 Rodent Diet 20; Lab Diets, starting at 12 weeks of age, with a daily food allotment of 60% of that eaten by the ad lib animals. Besides CR animals, the C57BL/6 groups in this study were fed the standard high fat diet (HFD; 60 or 40% fat). Body weights were measured weekly at the same time each week. Food and water intake were measured once every month for 3-6 consecutive days at the same time each month. Water consumption was measured for 2 weeks prior to the start of administration. Compound was generated and modified for better permeability in to mitochondria, evaluated by HPLC, was 96%-97%. The administration began at 8 weeks of age and continued for 16 months, until they became 18-month-old. The drug solution was prepared weekly in small batches by dissolving the compound into autoclaved water at the respective doses and filtering sterilely. Aliquots were collected from each batch and measured by HPLC to confirm stability of the compound. Water bottles and cages were changed twice weekly. Fed and fasted blood samples were collected monthly at the same time each month from tail and used for glucose, insulin, blood cell counts, lipid analysis using assay kits (Robio, China) and HbA1C assay kit (Crystal chem, USA) following the manufacturer protocol. IPGTTs and ITTs were conducted throughout morning and early afternoon after fasting for 16-18 hrs. and 4 hrs., respectively, once before start of treatment administration began and every 3 months thereafter. Rectal body temperature was measured monthly, as described previously. Whole blood samples, and histopathology were analyzed after 14 months of treatment. Tissue samples were collected after 10-14 months from mice, sacrificed and used for WB and qPCR microarray, and other analyses. All animal studies were approved by the Shanghai Jiao Tong University Animal Studies Committee and were in accordance with NIH guidelines. (Number of mice; SD=30, HFD=10, CR=20).

[3] = Single IP injection, body temperature and clinical pathology; format: in vivo, C57BL/6 mice; settings: Day 4
Description: Body temperature integration in mouse. Three groups of male C57BL/6 mice received a single injection of the inhibitor at dose-levels of 0 (vehicle=N/S), average μM and max μM and were then kept for an 80 minute observation period until the BT was stabilized. Treatment was performed as a slow injection, IP, under a dosage volume of 0.5 mL/kg.
Rectal temperature was measured using a conventional thermometer in all groups at 0, 10, 15, 20, 30, 40, 50, 60, 70 and 80 minutes and repeated three times in 3 days.

[4] = Body weight variations on high fat diet (HFD, 60% fat); format: in vivo, C57BL/6 mice; settings: for body weight gain on HFD: after 8 weeks HFD; for BW contrast of treated vs control: end of 8-week HFD
Description: as §1, §2

[5] = tested on: PGC-1α, NRF1, SIRT1, Atg5, PINK1, Parkin transcripts; assay: qPCR of mitochondriogenesis transcripts and mitophagy markers; format: in vivo, mouse
Description: (§3) Gene expression & RT qPCR Analyses. Total RNA was isolated using a commercially available kit (OMEGA bio-tek, R6812-02) according to the manufacturer's instructions. cDNA was generated using the PrimeScript RT reagent kit (TAKARA, RR047A). Gene expression were determined by qPCR as described in the product manual. The analysis was evaluated by Bio-Rad Real-Time System (CFX Connect™).
(§4) RNAs from 10 mice (5 treated and 5 Ctrl.) VF fat or livers were isolated by using omega Bio-Tek reagents, and cDNA was transcribed by (TAKARA). qPCR was then performed by using iQ SYBR Green mastermix bioscience on a CFX96 Real-Time System/C1000 Thermal Cycler (Bio-Rad).

[6] = Intra-peritoneal glucose tolerance test (IPGTT); format: in vivo, C57BL/6 mice
From the text: as §2, with “Fed and fasted blood samples were collected monthly at the same time each month from tail and used for glucose, insulin, blood cell counts, lipid analysis using assay kits (Robio, China) and HbA1C assay kit (Crystal chem, USA) following the manufacturer protocol. IPGTTs and ITTs were conducted throughout morning and early afternoon after fasting for 16-18 hrs. and 4 hrs., respectively, once before start of treatment administration began and every 3 months thereafter.” left out, “Tissue samples were collected after 10-14 months from mice, sacrificed and used for WB and qPCR microarray, and other analyses. All animal studies were approved by the Shanghai Jiao Tong University Animal Studies Committee and were in accordance with NIH guidelines. (Number of mice; SD=30, HFD=10, CR=20).” left out

p16, p21 transcripts = assay: qPCR of DNA damage and WAT senescence markers; format: in vivo, mouse; settings: WAT, after 14 months treatment
Description: as §3, §4

HeLa cells = assay: In vivo cervical cancer mouse model; set-up: species or system mice
Description: To investigate the effects of an example compound on a cervical cancer mouse model, HeLa cells were introduced to the back of mice (five groups, 5-6 mice in each group). After the tumor volume reached about 200 mm^3, compound HG1a-1 solution (5, 20, 50 mg/kg) was dosed by intraperitoneal (IP) injection, every second day for ten days. Control mice were dosed with Saline and Taxol solution (PTX, 20 mg/kg). Tumor weight and volume were measured.

3T3-L1 pre-adipocytes = assay: In vitro adipocyte differentiation (Oil Red O, protein blotting); format: cell-based
mature 3T3-L1 cells = assay: 2-NBDG glucose uptake in matured adipocytes; format: cell-based; settings: highest concentration 50 μg/mL, vs insulin (control) and Rosiglitazone
Description: Second, adipocytes are the main site of insulin action and, thereby, play an important role in glucose metabolism as well as in the regulation of body glucose homeostasis. Therefore, the glucose uptake tests were evaluated on matured adipocytes to stimulate 2-NBDG (glucose) in the absence and presence of insulin and Rosiglitazone (insulin-sensitizer) and the higher insulin sensitivity was verified after treatment by the inhibitor.

[7] = liver, 12- and 16-month chronic treatment
[8] = 5, 20 and 50 mg/kg IP, after 10 days

Cc1ncsc1CCOC(=O)C[P+](c1ccccc1)(c1ccccc1)c1ccccc1.[Br-] [HG1a-1, (2-(2-(4-Methylthiazol-5-yl)Ethoxy)-2-Oxoethyl) Triphenylphosphonium Bromide]
tolerability of long-term regulated mitochondrial inhibition ([1]; 18 month long treatment): well-tolerated without any deleterious effect | mortality due to oral administration ([1]; oral, 18-20 months): no mice died | body weight decrease vs controls ([2]; female mice, by 9 months): 26% | body weight less than controls ([2]; female mice, end of 5 months): 12% | body weight lighter than controls ([2]; after 14 months treatment): 25% | body weight lighter than controls ([2]; end of 5 months): 18% | clinical pathology (physicals) 24 h after treatment [3]: within the normal baseline range | BW gain on HFD ([4]; 14 month old mice already treated for 12 months, 8 week HFD): resisted the BW gain with HFD until 5 weeks | body weight gain on HFD ([4]; aged group (12 month old)): 12% | BW contrast of treated vs control ([4]; aged group): 13% | body weight gain on HFD ([4]; younger group (12 week old)): 18% | BW contrast of treated vs control ([4]; younger group): 2-4% | Atg5 transcript level ([5]; adipose tissue): enhancement | Atg5 transcript level [5, 7]: noticeable upgrade | PINK1 transcript level [5, 7]: noticeable upgrade | Parkin transcript level [5, 7]: noticeable upgrade | SIRT1 transcript level ([5]; liver, longer course of treatment): significant enhancement | NRF1 transcript level ([5]; livers of aged mice): increased notably | PGC-1α transcript level ([5]; livers of aged mice): increased notably | glucose tolerance (IPGTT) ([6]; after 6 months): normal glucose tolerance | glucose tolerance (IPGTT) ([6]; young ages of 8 weeks and 12 weeks): mildly glucose-intolerant | p16 expression decline (p16, p21 transcripts): 10 fold | p21 expression (p16, p21 transcripts): remained unchanged | tumor size (HeLa cells; 5, 20, 50 mg/kg IP every second day for ten days, with increasing dose): decreased | tumor volume relative to saline control (HeLa cells; [8]): decreased | tumor weight relative to saline control (HeLa cells; [8]): decreased | adipocyte differentiation (3T3-L1 pre-adipocytes; 3T3-L1, up to 14 days): poorly differentiated, immature adipocytes | protein abundance of Pparγ (3T3-L1 pre-adipocytes; 3T3-L1 cells): significant reduction | 2-NBDG uptake (mature 3T3-L1 cells): notably higher
